Measured values reported in PMC3482625 (Analytical chemistry, 2011).

Target: Matrix metalloproteinase-9 (MMP-9) (Homo sapiens, UniProt P14780)
Assay: fluorogenic peptide
Type: biochemical

Chain of Matrix metalloproteinase-9 (MMP-9) (P14780 107-707): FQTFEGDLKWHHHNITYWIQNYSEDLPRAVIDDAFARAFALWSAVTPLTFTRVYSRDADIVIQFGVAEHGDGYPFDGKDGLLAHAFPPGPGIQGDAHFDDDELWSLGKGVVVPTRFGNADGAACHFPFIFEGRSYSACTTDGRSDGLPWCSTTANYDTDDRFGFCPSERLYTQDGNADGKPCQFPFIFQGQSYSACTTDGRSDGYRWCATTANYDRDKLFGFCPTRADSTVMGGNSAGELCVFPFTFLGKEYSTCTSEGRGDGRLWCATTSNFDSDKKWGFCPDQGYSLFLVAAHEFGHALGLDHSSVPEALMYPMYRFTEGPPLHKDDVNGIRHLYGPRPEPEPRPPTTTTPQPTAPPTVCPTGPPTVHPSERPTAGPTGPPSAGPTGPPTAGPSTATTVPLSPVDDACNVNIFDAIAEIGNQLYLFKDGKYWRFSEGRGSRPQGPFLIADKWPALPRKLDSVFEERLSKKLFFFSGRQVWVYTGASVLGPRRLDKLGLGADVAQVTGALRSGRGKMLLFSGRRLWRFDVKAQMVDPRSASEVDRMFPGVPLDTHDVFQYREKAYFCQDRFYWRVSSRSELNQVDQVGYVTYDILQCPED

Q: Which IC50 does the source give for `CC(C)(NS(=O)(=O)c1ccc(Oc2ccc(F)cc2)cc1)C(=O)NO` [CP471474] here?
A: 11.9 ± 1 nM
